One experiment deals with insulin. The experiment is described as follows: Arginine-stimulated plasma insulin in Nembutal-anesthetized rats (radioimmunoassay). In kind it is in vivo, albino male rats. Here is the method:
(§1) The in vivo activity of the compounds of this invention was established by subjecting des-(Ala^1, Gly2), Met^11 -Somatostatin, as a representative compound of the invention, to the following standard test procedure: Three groups of ten albino male rats were arranged to provide a control group, a group for observation of Somatostatin activity as the standard and a group for the study of the test compound des-(Ala^1, Gly^2), Met^11 -Somatostatin. Nembutal (50 mg/kg) was injected intraperitoneally into each rat. Fifteen minutes later a subcutaneous injection of the test compound, somatostatin and physiological saline (control) was administered separately to each of the three groups of rats. Ten minutes later 0.5 milliliters of arginine (300 mg/ml, pH 7.2) was injected into the rats heart. The rats were decapitated five minutes later and their blood was collected in Trasylol -EDTA. Aliquot samples were radioimmunoassayed for growth hormone and insulin.

Another experiment relates to growth hormone. As to the kind of experiment: Arginine-stimulated plasma growth hormone in Nembutal-anesthetized rats (radioimmunoassay). The format is in vivo, albino male rats. To be noted: *p < 0.01. Here is the method: as §1
Another experiment deals with somatotropin. To be noted: Brazeau et al., Science, 179 pp 77-79 (1973); cited from earlier work.

Positions of bridges follow the written chain, without caps; N, C: chain ends. Residues, ends and D or L forms follow the SMILES beside them.

`CSCC[C@@H]1NC(=O)[C@H]([C@@H](C)O)NC(=O)[C@H](CCCCN)NC(=O)[C@H](Cc2c[nH]c3ccccc23)NC(=O)[C@H](Cc2ccccc2)NC(=O)[C@H](Cc2ccccc2)NC(=O)[C@H](CC(N)=O)NC(=O)[C@H](CCCCN)NC(=O)[C@@H](N)CSSC[C@@H](C(=O)O)NC(=O)[C@H](CO)NC(=O)[C@H]([C@@H](C)O)NC1=O` [Example 3, L-Cysteinyl-L-lysyl-L-asparaginyl-L-phenylalanyl-L-phenylalanyl-L-tryptophyl-L-lysyl-L-threonyl-L-methionyl-L-threonyl-L-seryl-L-cysteine (1-12) disulfide] (H-CKNFFWKTMTSC-OH; disulfide 1-12): the Insulin turned out to be 143 ± 13 μU/ml with insulin (Experiment 1, dose 400 μg/kg subcutaneous, control 172 ± 11, *p < 0.01) and 128 ± 13 μU/ml in the experiment on insulin (Experiment 3, dose 1500 μg/kg subcutaneous, control 206 ± 19). Besides, the GH with growth hormone (Experiment 2, dose 100 μg/kg subcutaneous, control 176 ± 29) amounted to 72 ± 12 ng/mL; in the experiment on growth hormone (Experiment 3, dose 1500 μg/kg subcutaneous, control 123 ± 16), 42 ± 10 ng/mL.

Take “H-Ala-Gly-Cys-Lys-Asn-Phe-Phe-Trp-Lys-Thr-Phe-Thr-Ser-Cys-OH (H-AGCKNFFWKTFTSC-OH; ends and bridges not checked) [linear form of somatostatin]”: in the experiment with somatotropin, the “inhibition of secretion of somatotropin (growth hormone)” value is reported as “same biological activity as somatostatin obtained from a natural source”.

These data come from US4012345A, “Des-(Ala^1, Gly^2), Met^11 -SRIF and intermediates” (American Home Products Corporation, priority 1976, dated 1977).
